# Legend:
# [1] = Binding affinity against […] adrenergic receptor
# [2] = as above; remark: listed apart in the source
IC50 [1],SMILES,IC50 [2]
871 nM,CN(C)CC1CC2c3ccccc3Cc3ccc(Cl)cc3N2O1 (centres undefined),
,CN(C)CC1CC2c3ccccc3Cc3ccncc3N2O1 (centres undefined),< 1000 nM
,CN(C)CC1CC2c3cccnc3Cc3ccccc3N2O1 (centres undefined),< 1000 nM
1860 nM,"CN(C)C[C@@H]1C[C@@H]2c3ccccc3Cc3ccccc3N2O1 [Dimethyl-[(2S,3aR)-1-(2,3,3a,8-tetrahydro-1-oxa-12b-aza-dibenzo[e,h]azulen-2-yl)methyl]-amine]",

# Source: BindingDB's records for doi:10.1016/s0960-894x(02)00796-5 (Janssen-Cilag, 2002)
